In PMC9279437, “Cytopathic SARS-CoV-2 screening on VERO-E6 cells in a large-scale repurposing effort” (Scientific Data, 2022):
Where a name gives a salt, the structure may show the parent alone. Read-outs that look alike come from different tables or passages of the source. Peptide text beside a SMILES is read from it. * marks the point of attachment. Cbz = O=C(OCc1ccccc1)*

What was measured:
in vitro = details: Chlorocebus sabaeus (African green monkey)
Vero E6 EGFP cells [1] = experiment: Cytotoxicity assessment in dose response without virus infection; details: cytotoxicity in the absence of virus, Vero E6 EGFP, 33 µM to 10 nM
[2] = as above; details: Chlorocebus sabaeus (African green monkey)
SARS-CoV-2 [3] = system: SARS-CoV-2
SARS-CoV-2 [4] = experiment: microbe, parasite or virus in culture
SARS-CoV-2 [5] = experiment: Primary anti-cytopathicity assay development: control compound profiling, 384-well plates; format: cell-based, Severe acute respiratory syndrome coronavirus 2; details: mean
Vero E6 EGFP cells [6] = system: Vero E6 EGFP cells
SARS CoV-2 = system: SARS CoV-2; design: method as in PMID 32473310; details: VERO-E6 cells; cited from earlier work
coronavirus OCR43 = system: coronavirus OCR43; design: method as in PMID 33324406; details: LLC-MK2 cells; cited from earlier work
[7] = ratio of cytotoxic to anti-cytopathic effects
[8] = Severe acute respiratory syndrome coronavirus 2, Vero C1008, 96 h
[9] = Severe acute respiratory syndrome coronavirus 2, read-out: Average IC50, d3 of incubation, 4000 cells seeded
[10] = Severe acute respiratory syndrome coronavirus 2, read-out: Average IC50, d3 of incubation, 8000 cells seeded
[11] = Severe acute respiratory syndrome coronavirus 2, read-out: Average IC50, d4 of incubation, 4000 cells seeded
[12] = Severe acute respiratory syndrome coronavirus 2, read-out: Average IC50, d4 of incubation, 8000 cells seeded
[13] = Severe acute respiratory syndrome coronavirus 2, read-out: Average IC50, d5 of incubation, 8000 cells seeded
[14] = Severe acute respiratory syndrome coronavirus 2, read-out: Average IC50, d5 of incubation, 4000 cells seeded

`Cc1[nH]c(/C=C2\C(=O)Nc3ccc(S(=O)(=O)Cc4c(Cl)cccc4Cl)cc32)c(C)c1C(=O)N1CCC[C@@H]1CN1CCCC1` [PHA-665752] gave a CC50 (in vitro) of over 33 µM.
With `O=C(c1c2ccccc2cc2ccccc12)N1CCC(N2CCC[C@@H](C(=O)N3CCOCC3)C2)CC1` [CP-640186] the CC50 (Vero E6 EGFP cells [1]) was 10.2 µM.
Work on `CCCCN(CCCC)CCC(O)c1cc2c(Cl)cc(Cl)cc2c2cc(C(F)(F)F)ccc12` (centres unmarked) [Halofantrine hydrochloride] yielded a CC50 at 4 days [2] of over 33 µM.
For `CCCCCCCCCCCCCCOc1ccc(C(=O)O)o1` [KD-023], the IC50 (SARS-CoV-2 [3]) was 4.04 µM and the “SI (CC50/IC50)” value (SARS-CoV-2 [3]; [7]) was 8.17.
For `CCN(CC)c1ccc2cc(-c3nc4ccccc4[nH]3)c(=O)oc2c1` [Coumarin 7], the IC50 (SARS-CoV-2 [3]) was 0.36 µM and the “SI (CC50/IC50)” value (SARS-CoV-2 [3]) was 91.67.
In the case of `CN1CCN(C2CCN(C(=O)Nc3cc(Oc4ccc(NC(=O)C5(C(=O)Nc6ccc(F)cc6)CC5)c(F)c4)ccn3)CC2)CC1` [Golvatinib (E7050), Golvatinib], the CC50 at 4 days (in vitro) is reported as over 33 µM, the “SI (CC50/IC50)” value (SARS-CoV-2 [3]; [7]) is reported as 5.60 and the IC50 (SARS-CoV-2 [4]; [8]) is reported as 5.89 µM.
With `CCN(CCO)CCCC(C)Nc1ccnc2cc(Cl)ccc12` (centres unmarked) [Hydroxychloroquine, hydroxychloroquine] the IC50 (SARS-CoV-2 [5]; [9]) was 16.4 µM, the IC50 (SARS-CoV-2 [5]; [10]) was 15.8 µM and the IC50 (SARS-CoV-2 [5]; [11]) was 21 µM. For the same compound, the IC50 (SARS-CoV-2 [5]; [12]) was 25.8 µM and the IC50 (SARS-CoV-2 [5]; [13]) was 43.6 µM.
With `C[C@@H]1C[C@@H]([C@H](O)CC2CC(=O)NC(=O)C2)C(=O)[C@@H](C)C1` [Cycloheximide] the CC50 (in vitro) was 10.2 µM.
For `CC(C)(C)NCc1ccc(Nc2ccnc3cc(Cl)ccc23)cc1O` [N-tert-Butylisoquine], the CC50 at 4 days (in vitro) was 12.4 µM.
In the case of `O=C(Nc1ccc([N+](=O)[O-])cc1Cl)c1cc(Cl)ccc1O` [Niclosamide], the “SI (CC50/IC50)” value (SARS-CoV-2 [3]) is reported as 8.05, the CC50 at 4 days [2] is reported as over 33 µM and the IC50 (SARS-CoV-2 [4]; [8]) is reported as 4.1 µM.
Work on `COc1ccc2c(c1)[C@]1(C[C@H]1c1ccc3c(/C=C/c4ccc(CN5C[C@@H](C)O[C@@H](C)C5)cc4)n[nH]c3c1)C(=O)N2` [CFI-400945] yielded a CC50 at 4 days (in vitro) of over 33 µM.
`CCC(CC)COC(=O)[C@H](C)N[P@](=O)(OC[C@H]1O[C@@](C#N)(c2ccc3c(N)ncnn23)[C@H](O)[C@@H]1O)Oc1ccccc1` [Remdesivir, remdesivir] gave an IC50 (SARS-CoV-2 [5]; [9]) of 2.73 µM, an IC50 (SARS-CoV-2 [5]; [10]) of 1.56 µM and an IC50 (SARS-CoV-2 [5]; [11]) of 3.74 µM. For the same compound, the IC50 (SARS-CoV-2 [5]; [12]) was 2.27 µM, the IC50 (SARS-CoV-2 [5]; [14]) was 4.67 µM and the IC50 (SARS-CoV-2 [5]; [13]) was 2.99 µM. For the same compound, the IC50 (SARS-CoV-2 [4]; Severe acute respiratory syndrome coronavirus 2, Vero C1008, read-out: IC50 (%Confluence versus compound concentration), positive control, curve fitting example Fig. 4) was 1.7 µM.
Compound `Nc1nc2c(ncn2[C@@H]2O[C@H](CO)[C@@H](O)[C@H]2O)c(=S)[nH]1` [Thioguanosine] has a CC50 (in vitro) of over 33 µM.
Work on `Cc1c(O)cccc1C(=O)N[C@@H](CSc1ccccc1)[C@H](O)CN1C[C@H]2CCCC[C@H]2C[C@H]1C(=O)NC(C)(C)C` [[…]] yielded a CC50 (in vitro) of over 33 µM.
In the case of Rhodamine-123, the IC50 (SARS-CoV-2 [3]) is reported as 0.8 µM and the “SI (CC50/IC50)” value (SARS-CoV-2 [3]; [7]) is reported as 41.25.
With `Nc1cc2c3ccccc3ccc2c2ccccc12` [6-amino-chrysene] the CC50 (in vitro) was over 33 µM, the “SI (CC50/IC50)” value (SARS-CoV-2 [3]; [7]) was 2.84 and the IC50 (SARS-CoV-2 [4]; [8]) was 11.6 µM.
For `CC(=O)[C@]1(N)Cc2c(O)c3c(c(O)c2[C@@H](O[C@H]2C[C@H](O)[C@H](O)CO2)C1)C(=O)c1ccccc1C3=O` [Amrubicin], the CC50 (in vitro) was over 33 µM, the “SI (CC50/IC50)” value (SARS-CoV-2 [3]; [7]) was 100.00 and the IC50 (SARS-CoV-2 [4]; [8]) was 0.33 µM.
`Cc1cccc(Nc2nc(-c3ccncc3)cs2)c1` [STF-62247] showed a CC50 (Vero E6 EGFP cells [1]) of 31.5 µM.
For `CC(C)C[C@@H](C=O)NC(=O)[C@H](CC(C)C)NC(=O)[C@H](CC(C)C)NC(=O)OCc1ccccc1` [MG-132] (Cbz-Leu-Leu-Leu-aldehyde), the CC50 at 4 days [2] was 2.9 µM.
Compound `COc1ccc2cc1Oc1ccc(cc1)C[C@H]1c3cc(c(OC)cc3CCN1C)Oc1c(OC)c(OC)cc3c1[C@H](C2)N(C)CC3` [Tetrandrine (Fanchinine), Tetrandrine] has a CC50 at 4 days [2] of over 33 µM.
With `COc1cc2c(N3CCN(C(=O)Nc4ccc(OC(C)C)cc4)CC3)ncnc2cc1OCCCN1CCCCC1` [Tandutinib (MLN518), Tandutinib] the CC50 (in vitro) was over 33 µM and the IC50 (SARS-CoV-2 [3]) was under 20 µM.
With `Cc1ccc(NC(=O)c2ccc(CN3CCN(C)CC3)cc2)cc1Nc1nc(-c2cccnc2)cs1` [Masitinib (AB1010), Masitinib] the CC50 at 4 days [2] was over 33 µM and the IC50 (SARS-CoV-2 [4]; [8]) was under 20 µM.
In the case of `CCN(CC)CCOc1ccc(C(=C(Cl)c2ccccc2)c2ccccc2)cc1` [Clomiphene citrate], the CC50 at 4 days [2] is reported as over 33 µM.
With `Cc1cc(O[C@@H](CCC(F)(F)F)c2ccc(C(=O)NCCC(=O)O)cc2)cc(C)c1-c1ccc(C(C)(C)C)cc1` [Adomeglivant] the CC50 at 4 days (in vitro) was over 33 µM.
Compound `Cc1cccc(C)c1OCC(=O)N[C@@H](Cc1ccccc1)[C@@H](O)C[C@H](Cc1ccccc1)NC(=O)[C@H](C(C)C)N1CCCNC1=O` [Lopinavir, lopinavir] has an IC50 (SARS-CoV-2 [5]; [9]) of 9.21 µM, an IC50 (SARS-CoV-2 [5]; [10]) of 7.58 µM and an IC50 (SARS-CoV-2 [5]; [11]) of 11.3 µM. For the same compound, the IC50 (SARS-CoV-2 [5]; [12]) was 12 µM and the IC50 (SARS-CoV-2 [5]; [13]) was 21.1 µM.
Work on `O=C(c1c2ccccc2cc2ccccc12)N1CCC(N2CCC[C@@H](C(=O)N3CCOCC3)C2)CC1` [CP-640186 (hydro-chloride)] yielded a CC50 (Vero E6 EGFP cells [6]) of 10.9 µM.
With 3'-fluoro-benzyl-spiperone the CC50 (Vero E6 EGFP cells [1]) was 27.4 µM.
For `O=C1OC2(c3ccc(O)cc3Oc3cc(O)ccc32)c2ccccc21` [Fluorescein], the “SI (CC50/IC50)” value (SARS-CoV-2 [3]; [7]) was 49.25, the CC50 at 4 days [2] was over 33 µM and the IC50 (SARS-CoV-2 [4]; [8]) was 0.67 µM.
With `Nc1c[nH]c(=O)c2cc(-c3ccccc3)sc12` [Thieno-pyridone] the CC50 (Vero E6 EGFP cells [6]) was over 33 µM, the IC50 (SARS-CoV-2 [3]) was 5.26 µM and the “SI (CC50/IC50)” value (SARS-CoV-2 [3]; [7]) was 6.27.
Work on `CC(C)(O)CNc1ncc(-c2ccnc(Nc3ccnc(Cl)c3)n2)c(CC2CC2)n1` [VPS34-IN-1] yielded a CC50 (in vitro) of 26.8 µM.
With `Cc1cc(O)c2c(=O)c3c(O)cc(O)c4c5c(O)cc(O)c6c(=O)c7c(O)cc(C)c8c1c2c(c34)c(c78)c65` [Hypericin] the CC50 (in vitro) was 1.31 µM, the “SI (CC50/IC50)” value (SARS-CoV-2 [3]; [7]) was 5.24 and the IC50 (SARS-CoV-2 [4]; [8]) was 0.25 µM.
For `CNCc1ccc(-c2cc(-c3nc(-c4ccc(S(=O)(=O)C(C)C)cc4)cnc3N)on2)cc1` [VE-822], the CC50 at 4 days (in vitro) was 10 µM, the IC50 (SARS-CoV-2 [3]) was under 20 µM and the “SI (CC50/IC50)” value (SARS-CoV-2 [3]; [7]) was 3.75.
For `CCN(CC)CCCC(C)Nc1ccnc2cc(Cl)ccc12` (centres unmarked) [Chloroquine, chloroquine], the IC50 (SARS-CoV-2 [5]; [9]) was 11.3 µM, the IC50 (SARS-CoV-2 [5]; [10]) was 8.69 µM and the IC50 (SARS-CoV-2 [5]; [11]) was 13.4 µM. The IC50 (SARS-CoV-2 [5]; [12]) was 13.5 µM, the IC50 (SARS-CoV-2 [5]; [14]) was 13.5 µM and the IC50 (SARS-CoV-2 [5]; [13]) was 17.1 µM.
For `O=C(c1ccc(OCCN2CCCCC2)cc1)c1c(-c2ccc(O)cc2)sc2cc(O)ccc12` [Raloxifene hydrochloride], the “activity in phenotypic assay of SARS CoV-2 viral infection” value (SARS CoV-2) is listed as “active”, the “activity against coronavirus OCR43” value (coronavirus OCR43) is listed as “active” and the IC50 (SARS-CoV-2 [3]) is listed as 15.4 µM. The “SI (CC50/IC50)” value (SARS-CoV-2 [3]) was 2.14, the CC50 at 4 days [2] was over 33 µM and the IC50 (SARS-CoV-2 [4]; [8]) was under 20 µM.
In the case of `CCN1CCN(Cc2ccc(-c3cc4c(N[C@H](C)c5ccccc5)ncnc4[nH]3)cc2)CC1` [AEE788], the “SI (CC50/IC50)” value (SARS-CoV-2 [3]; [7]) is reported as 8.38, the CC50 at 4 days [2] is reported as over 33 µM and the IC50 (SARS-CoV-2 [4]; [8]) is reported as 3.94 µM.
With `Nc1ncnc2c1ncn2[C@@H]1CC[C@@H](O)[C@H]1O` [DHCaA] the CC50 (Vero E6 EGFP cells [6]) was 15.7 µM.
`COc1cc(NCc2ccc3nc(N)nc(N)c3c2C)cc(OC)c1OC` [Trimetrexate] showed an IC50 (SARS-CoV-2 [3]) of under 20 µM and a CC50 at 4 days [2] of 1.99 µM.
For `CCN(CC)Cc1cc(Nc2ccnc3cc(Cl)ccc23)ccc1O` [Amodiaquine], the “SI (CC50/IC50)” value (SARS-CoV-2 [3]) was 4.12, the CC50 at 4 days [2] was 16.8 µM and the IC50 (SARS-CoV-2 [4]; [8]) was 4.07 µM.
With `COc1cc(C[C@H]2c3cc(OC)c(OC)cc3CCN2C)c(Oc2cc3c(cc2OC)-c2c(OC)c(OC)cc4c2[C@H](C3)N(C)CC4)cc1OC` [Thaliblastine] the IC50 (SARS-CoV-2 [3]) was 3.87 µM and the “SI (CC50/IC50)” value (SARS-CoV-2 [3]; [7]) was 8.53.
With `Nc1nc2nn[nH]c2c(=O)[nH]1` [8-Azaguanine] the CC50 (in vitro) was 10.4 µM, the “SI (CC50/IC50)” value (SARS-CoV-2 [3]) was 2.79 and the IC50 (SARS-CoV-2 [4]; [8]) was 3.72 µM.
Compound `OCCNC1CCCc2c1[nH]c1ccc(-c3ccccc3)cc21` (centres unmarked) [casin] has a CC50 (Vero E6 EGFP cells [6]) of over 33 µM.
`CC(C)COCC(CN(Cc1ccccc1)c1ccccc1)N1CCCC1` (centres unmarked) [Bepridil] gave a CC50 at 4 days [2] of 23.4 µM.
